Assay results as given in patent US11517581B2, “Zika virus protease inhibitors and methods of use thereof” (priority 2017, dated 2022).
Converted amounts (≈) assume the structure as drawn.

Columns and labels:
[1] = target: ZIKV NS2B-NS3 protease (Zika virus, UniProt A0A024B7W1, DEL1468-1502); format: biochemical; settings: 10 μM substrate, 5 nM protease
[2] = Cell viability (MTT) assay in Vero cells; format: cell-based; settings: African green monkey
Experimental: (§1) Briefly, Vero or Huh-7 cells (4×10^4 cells/well) were incubated with different concentrations of individual drug for 24 h, followed by the addition of 10 μl/well of 5 mg/ml MTT substrate. The monolayers were incubated as above for 4 h (away from light). Finally, 100 μl of 10% sodium dodecyl sulfate (SDS) with 0.01M HCl was added and further incubated at 37° C. with 5% CO2 overnight. […] Briefly, the drug compounds were diluted with serum-free MEM and added to confluent Vero cells in 96-well culture plates (4×10^4 cells/well) in triplicate for 2 h at 37° C. After incubation, the drug-containing media were removed, and ZIKV (multiplicity of infection, MOI=0.0002) was added together with fresh drug-compound media to each well. Following 1 h of adsorption at 37° C., the virus-compound mixture was removed and the cells were washed twice with MEM to remove unbound virus. Subsequently, media with antiviral compounds were added to the cells for further incubation for 6 days at 37° C. in a 5% CO2 humidified environment. CPE was examined by inverted light microscopy (Chan et al., 2016b). Thereafter, MTT substrate and SDS-HCl were added sequentially as mentioned above. The half maximal inhibitory concentration (IC50) and CC50 were calculated using Sigma plot (SPSS) in an Excel add-in ED50V10.

[3] = Cell viability (MTT) assay in Huh-7 cells; format: cell-based; settings: human
Experimental: as §1

[4] = tested on: ZIKV (Puerto Rico strain PRVABC59); assay: Viral load reduction assay (qRT-PCR) in Vero cells; format: cell-based, Zika virus
Experimental: Viral load reduction assay and plaque reduction assay was performed for the evaluation of antiviral activity. Briefly, ZIKV-infected Vero cells (MOI=0.05) were treated with different concentrations of drugs or dimethyl sulfoxide (DMSO) control, cell culture supernatants (Vero and Huh-7) were collected at 48 hours post-infection, followed by total nucleic acid extraction and quantitative reverse transcription-PCR (qRT-PCR) as previously described with modifications (Chan et al., 2013; Chan et al., 2016b; Chan et al., 2017a). The IC50 was calculated using Sigma plot (SPSS) in an Excel add-in ED50V10. The viral load reduction assay experiments were performed in triplicate and repeated twice for confirmation.

[5] = tested on: ZIKV (Puerto Rico strain PRVABC59); assay: Viral load reduction assay (qRT-PCR) in Huh-7 cells; format: cell-based; settings: Zika virus, 0.05 MOI, 48 hours post-infection, supernatant qRT-PCR
Experimental: (§2) A clinical isolate of ZIKV (Puerto Rico strain PRVABC59) obtained from a patient in the recent South American epidemic was kindly provided by Brandy Russell and Barbara Johnson, Centers for Disease Control and Prevention, USA. The virus was cultured and titrated as we previously described with slight modifications (Chan et al., 2016b; Zhou et al., 2014). The virus was amplified by three additional passages in Vero cells (ATCC) in minimum essential medium (MEM) supplemented with 1% fetal bovine serum (FBS, Gibco™, Life Technologies Corporation, Massachusetts, USA) and 100 units/ml penicillin plus 100 μg/ml streptomycin to make working stocks of the virus (4×10^6 50% tissue culture infectious dose (TCID50)/ml). For virus titration, aliquots of ZIKV were applied on confluent Vero cells in 96-well plates for the TCID50 assay as was previously described with slight modifications (Chan et al., 2016b; Zhou et al., 2014). Briefly, serial 10-fold dilutions of ZIKV were inoculated in a Vero cell monolayer in quadruplicate and cultured in penicillin/streptomycin-supplemented MEM and 1% FBS. […] Viral titer was calculated using the Reed and Munch endpoint method. One TCID50 was interpreted as the amount of virus that causes cytopathic effect in 50% of inoculated wells.

[6] = tested on: ZIKV; assay: MTT-based CPE inhibition assay in Vero cells; format: cell-based; settings: Zika virus, 144 h, MOI 0.0002, 6 days
Experimental: as §1

[7] = tested on: ZIKV; assay: Plaque reduction assay in Vero cells; format: cell-based, Zika virus
Experimental: Plaque reduction assay was performed as we previously described with slight modifications (Chan et al., 2017a). Briefly, Vero cells were seeded at 2×10^5 cells/well in 24-well tissue culture plates on the day before carrying out the assay. After 24 h of incubation, 20-40 plaque-forming units (PFU) of ZIKV were added to the cell monolayer with or without the addition of drug compounds and the plates were further incubated for 1 h at 37° C. in 5% CO2 before removal of unbound viral particles by aspiration of the media and washing once with MEM. Monolayers were then overlaid with media containing 1% low melting agarose (Cambrex Corporation, New Jersey, USA) in MEM and appropriate concentrations of drug compounds, inverted and incubated as above for another 96 h. The wells were then fixed with 10% formaldehyde (BDH, Merck, Darmstadt, Germany) overnight. After removal of the agarose plugs, the monolayers were stained with 0.7% crystal violet (BDH, Merck) and the plaques were counted. The percentage of plaque inhibition relative to the control (i.e. without the addition of compound) wells were determined for each drug compound concentration.

[8] = tested on: ZIKV (Puerto Rico strain PRVABC59) in Vero cells; assay: Viral load reduction assay, Vero cells; format: cell-based, Zika virus; settings: culture supernatants
Experimental: as §2

[9] = tested on: ZIKV; assay: Time-of-drug-addition assay in Vero cells; format: cell-based, Zika virus
Experimental: Briefly, Vero cells were seeded in 24-well plates (2×10^5 cells/well). The cells were inoculated with ZIKV (MOI=2) and then incubated for 1 h for virus internalization. The viral inoculum was then removed and the cells were washed twice with PBS. […] At 18 hpi, the cell culture supernatant of each time point experiment was collected for viral load measurement using qRT-PCR.

[10] = human; cited from earlier work

Chain of ZIKV NS2B-NS3 protease (A0A024B7W1 1502-1672, added parts left off, stated change not applied): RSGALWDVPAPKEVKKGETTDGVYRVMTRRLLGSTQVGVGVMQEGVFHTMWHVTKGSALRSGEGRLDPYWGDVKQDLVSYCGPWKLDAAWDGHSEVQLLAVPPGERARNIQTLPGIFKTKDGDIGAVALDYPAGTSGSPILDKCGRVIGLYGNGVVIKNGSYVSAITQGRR

**Q.** With `CO[C@@H]1[C@@H](OC(N)=O)[C@@H](O)[C@H](Oc2ccc3c(O)c(NC(=O)c4ccc(O)c(CC=C(C)C)c4)c(=O)oc3c2C)OC1(C)C` [Novobiocin] as the compound, how does the “Effect of increasing drug concentrations on protease activity” value [1] read?
**A.** The value was “dose-dependent reduction in protease activity”.

**Q.** And the CC50 at 24 h [2]?
**A.** The CC50 at 24 h was 850 µg/mL (≈ 1390 µM).

**Q.** What about the CC50 at 24 h [3] of the same compound?
**A.** The CC50 at 24 h was 1100 µg/mL (≈ 1800 µM).

**Q.** What about the IC50 ([4]; Zika virus, Vero, 48 h, read-out: IC50, viral load reduction assay) of the same compound?
**A.** Its IC50 is 26.1 ± 0.33 µg/mL (≈ 42.6 µM).

**Q.** What about the “Concentration at which mean virus titer was significantly reduced (P<0.05)” value ([4]; viral load reduction assay) of the same compound?
**A.** Its value is at least 25.00 µg/mL.

**Q.** What about the IC50 [5] of the same compound?
**A.** Its IC50 is 38.1 ± 4.53 µg/mL (≈ 62.3 µM).

**Q.** What about the IC50 [6] of the same compound?
**A.** Its IC50 is 53.3 ± 2.48 µg/mL (≈ 86.9 µM).

**Q.** And the IC50 ([7]; Zika virus, Vero cells)?
**A.** The IC50 was 15.21 ± 0.14 µg/mL (≈ 24.8 µM).

**Q.** And the Plaque reduction ([7]; at concentrations ≥50.00 μg/ml)?
**A.** The Plaque reduction was 100%.

**Q.** What about the “Reduction in virus titer” value [8] of the same compound?
**A.** The value was “dose-dependent reduction in virus titer”.

**Q.** And the “Viral loads at 18 hpi, drug added during virus replication stage” value ([9]; 100 μg/ml added at 0, 3, 6, 9, or 12 hpi, MOI 2, P<0.05)?
**A.** The value was “significantly reduced”.

**Q.** What about the “Inhibitory activity, drug added at adsorption or release stage” value ([9]; 100 μg/ml at 0-1 hpi or at 14 hpi) of the same compound?
**A.** The value was “No significant inhibitory activity”.

**Q.** And the “ZIKV attachment, cells pretreated with drug” value ([9]; 100 μg/ml, −1 to 0 hpi)?
**A.** The value was “not affected”.

**Q.** What about the Clinical tolerability [10] of the same compound?
**A.** The Clinical tolerability was “generally well tolerated clinically”.
